Consider 4 compounds from patent publication US4880779A, “Method of prevention or treatment of AIDS by inhibition of human immunodeficiency virus” (priority 1987, dated 1989).

The test system of data set [1] is human immunodeficiency virus (HIV). The data set can be described thus: HIV-induced cell fusion: RH9 cells mixed with HIV-infected lymphoblasts. It is filed as cell-based. The following applies: for activity as inhibitor of HIV-induced cell fusion: RH9 + HIV-infected cells; for Polykaryocytes Mean Diameter / Polykaryocytes Per mm^2: RH9 + HIV-RH9. On the procedure:
(§1) The commercially available peptides, carbobenzoxy-D- Phe-L-Phe-Gly (z-PPG) and Phe-Gly-Gly-Phe (PGGP) were obtained from Sigma Chemical Company, St. Louis, MO in granular form. Stock solutions were prepared to 20 mg/ml in dimethyl sulfoxide and stored at 0° C. A line of uninfected human lymphoblasts, RH9, and a line of lymphoblasts persistently infected with human immunodeficiency virus (HIV) were obtained from Dr. Robert Garry of Tulane Medical Center, New Orleans, La. and grown in RPMI medium containing 10% fetal calf serum obtained from Gibco, Grand Island, N.Y.
In the experimental protocol, RH9 cells are pretreated with various concentrations of either z-PPG or PGGP by adding a small aliquot of the peptide/DMSO solution to a suspension culture. After 1 hour, a suspension culture containing one-half the number of HIV-infected cells are added to the RH9-peptide mixture. The mixture is then incubated at 37° C. for 18 hours, and examined periodically for induction of cell fusion in the cell mixture.

Another data set deals with uninfected RH9 cells. On the procedure:
as §1
To test this further incubated cultures of either uninfected RH9 cells, or HIV-infected carrier cultures, were incubated with PGGP for four days.

Where a SMILES comes first, the peptide text is derived from it.

As for “z-Phe-Leu [x-Phe-Leu, reference compound]”, the “activity as inhibitor of HIV-induced cell fusion” value in data set [1] was “no demonstrable activity”; in data set [1] (listed as z-Phe-Leu) it was “ineffective”.
Turning to `N[C@@H](Cc1ccccc1)C(=O)NCC(=O)NCC(=O)N[C@@H](Cc1ccccc1)C(=O)O` [PGGP, Phe-Gly-Gly-Phe] (H-FGGF-OH), the “effect on rate of growth, final cell density or cell viability” value with uninfected RH9 cells is given as “no significant effect”.
For the compound z-Phe-Gly [reference compound], the “activity as inhibitor of HIV-induced cell fusion” value in data set [1] was “no demonstrable activity”.
Take carbobenzoxy-D- Phe-L-Phe-Gly [z-PPG]: the entries for the “Polykaryocytes Mean Diameter” value in data set [1] (0.08 M peptide), in data set [1] (0.25 M peptide) and in data set [1] (0.8 M peptide) were 51 um, 37 um and 26 um, respectively. The “Polykaryocytes Per mm^2” value in data set [1] (0.08 M peptide) is on record as 105 per mm^2; in data set [1] (0.25 M peptide), 59 per mm^2; in data set [1] (0.8 M peptide), 4 per mm^2. For the same compound, in data set [1] (approximtely 1 mM peptide, 1 hour pretreatment of RH9, 18 hours at 37° C.), the “inhibition of fusion (phase photomicrographs, FIG. 1)” value was “almost complete inhibition of fusion”. In addition, the minimal inhibitory dose in data set [1] (inhibition of cell fusion under these experimental conditions, 18 hours) is 0.3 mM.
